B1: f-adiponectin: Recombinant human full-length (non-proteolytic) adiponectin, about 30-kDa polypeptide; lot mainly HMW form (protein, UniProt Q15848 1-244, looked up)
chain: MLLLGAVLLLLALPGHDQETTTQGPGVLLPLPKGACTGWMAGIPGHPGHNGAPGRDGRDGTPGEKGEKGDPGLIGPKGDIGETGVPGAEGPRGFPGIQGRKGEPGEGAYVYRSAFSVGLETYVTIPNMPIRFTKIFYNQQNHYDGSTGKFHCNIPGLYYFAYHITVYMKDVKVSLFKKDKAMLFTYDQYQENNVDQASGSVLLHLEVGDQVWLQVYGEGERNGLYADNDNDSTFTGFLLYHDTN
modifications: full-length
notes: Recombinant human full-length (non-proteolytic) adiponectin, about 30-kDa polypeptide; lot mainly HMW form

Columns and labels:
DU145 cells = assay: [3H] thymidine incorporation assay; format: cell-based, human
Procedure: (§1) DU145 (1.5×10^5/well), PC-3 (1.0×10^5/well) and LNCaP-FGC (2.0×10^5/well) cells were seeded into 24-well plates 24 hours before serum-starvation. Cells were deprived of serum for 48 hours, followed by incubation with leptin at indicated concentrations or 100 ng/ml IL-6 for 20 hours. In some experiments, cells were pretreated with SP600125 prior to cytokine stimulation as described below. Cells in each well were pulsed with 1 μCi of [^3H] thymidine (Amersham Pharmacia Biotech Inc., Piscataway, N.J., USA) during the final 5 hours, washed once with PBS, fixed with cold 5% trichloroacetic acid, solubilized with 0.25 M NaOH, and counted in scintillant. Each experiment was performed in quadruplicate, and the values are reported as mean±SD.
(§2) SP600125 was dissolved in DMSO to make a stock solution. Eighty-percent confluent prostate cancer cells were serum-starved for 24 hours and pretreated with SP600125 at indicated concentrations for 30 minutes, followed by leptin treatment (12.5 μg/ml): 15 minutes for Western blot analysis or 20 hours for thymidine incorporation assays. DMSO-treated cells were employed as controls.

PC-3 cells = assay: [3H] thymidine incorporation assay; format: cell-based, human
Procedure: as §1, §2

JNK = assay: In vitro JNK assay on lysates of treated C2C12 myoblasts; format: cell-based, murine; details: 1.0 μg/ml
Procedure: Seventy-percent confluent cells were deprived of serum for 24 hours, followed by treatment with 1 μg/ml f- or g-adiponectin or 10 μg/ml anisomycin for indicated periods. After being rinsed with cold phosphate-buffered saline, cells were harvested using a scraper and collected by centrifugation at 700×g for 10 minutes at 4° C. The cell pellets were then homogenized in cell lysis buffer (20 mM HEPES, pH 7.9, 300 mM NaCl, 1 mM Na3VO4, 1 μg/ml leupeptin, 5 μg/ml aprotinin, 1 μg/ml pepstatin, and 1 mM phenylmethylsulfonyl fluoride) and rocked gently for 30 minutes at 4° C. The homogenates were centrifuged at 15,000×g for 5 minutes at 4° C., and the supernatants were saved as cell lysates and stored at −80° C. until use.
Using the stress-activated protein kinase/JNK assay kit, JNK activity was assessed with a fusion protein of the c-Jun NH2 terminus (amino acids 1 to 89) and glutathione S-transferase as a substrate according to the manufacture's instructions with some modifications as reported before (M. Onuma, et al., supra, 2003). […] The substrate fusion protein was separated by SDS-polyacrylamide gel electrophoresis, and its phosphorylation by JNK was determined by Western blot analysis using anti-phospho-c-Jun (Ser-63) polyclonal antibody. To normalize sample variations, JNK protein levels were also determined by Western blot analysis using anti-JNK antibody.

Molecule	[3H] thymidine incorporation (cell proliferation), cytokine alone (DU145 cells; DU145, serum-deprived, leptin up to 12.5 μg/ml, IL-6 100 ng/ml or IGF-I 100 ng/ml, 20 hours)	effect on the IGF-I stimulation of cell proliferation (DU145 cells; DU145, 12.5 μg/ml leptin with 100 ng/ml IGF-I, 20 hours)	effect on the IL-6 stimulation of cell proliferation (DU145 cells; DU145, 12.5 μg/ml leptin with 100 ng/ml IL-6, 20 hours)	[3H] thymidine incorporation (cell proliferation), cytokine alone (PC-3 cells; PC-3, serum-deprived, leptin up to 12.5 μg/ml, IL-6 100 ng/ml or IGF-I 100 ng/ml, 20 hours)	effect on the IGF-I stimulation of cell proliferation (PC-3 cells; PC-3, 12.5 μg/ml leptin with 100 ng/ml IGF-I, 20 hours)	effect on the IL-6 stimulation of cell proliferation (PC-3 cells; PC-3, 12.5 μg/ml leptin with 100 ng/ml IL-6, 20 hours)	time of peak JNK activation after addition (JNK) [min]	JNK activation (JNK; up to 60 minutes)
leptin: Recombinant human leptin purchased from R&D Systems; major adipose cytokine	stimulated thymidine incorporation remarkably in a dose-dependent fashion	drastic, synergistic effects	additive effects	stimulated thymidine incorporation remarkably in a dose-dependent fashion	drastic, synergistic effects	additive effects		
B1							10	further stimulated JNK activation
